Experimental data: US20090048258A1, “Amide Compound” (priority 2005, published 2009)

Molecular target: T1, Human DGAT1 (Homo sapiens, UniProt O75907)
T1 construct: my translation of the primer: M-G-DYKDDDD-GDRGSSRRR) (N); made in house; host or cells: Sf9 insect cells (recombinant baculovirus BAC-DGAT1, pFASTBAC1); microsome fraction
T1 sequence (O75907 1-488): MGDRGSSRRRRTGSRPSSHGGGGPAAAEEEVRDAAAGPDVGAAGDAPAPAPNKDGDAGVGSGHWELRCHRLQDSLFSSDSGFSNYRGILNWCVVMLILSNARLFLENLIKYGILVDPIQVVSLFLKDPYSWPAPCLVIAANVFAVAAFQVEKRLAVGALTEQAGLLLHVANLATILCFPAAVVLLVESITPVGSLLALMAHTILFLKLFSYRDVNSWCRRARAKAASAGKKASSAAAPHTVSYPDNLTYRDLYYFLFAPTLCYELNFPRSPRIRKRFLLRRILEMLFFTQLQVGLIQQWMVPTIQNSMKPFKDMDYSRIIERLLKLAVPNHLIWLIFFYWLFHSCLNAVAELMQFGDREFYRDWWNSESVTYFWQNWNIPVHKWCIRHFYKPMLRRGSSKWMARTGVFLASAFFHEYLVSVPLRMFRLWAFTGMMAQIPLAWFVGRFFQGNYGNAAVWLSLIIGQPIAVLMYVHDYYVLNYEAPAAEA
Experiment: DGAT inhibitory activity: [14C]-triglyceride synthesis by DGAT1 high expression Sf9 microsome
Format: biochemical
Settings: Table 1, 25 μM dioleoylglycerol, 25 μM [14C]-Oleoyl-CoA, 32° C., 15 min, read-out: DGAT inhibitory activity (according to IC50)
Outline: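 DGAT1 was overexpressed from recombinant baculovirus in Sf9 cells, and microsomes from these cells were the enzyme source. Reactions ran in 100 mM Tris-HCl pH 7.5, 250 mM sucrose, 150 mM MgCl2 and 0.01% BSA. [14C]-triglyceride was extracted into chloroform, separated by TLC and quantified by imaging plate, with inhibition calculated against control and blank (no microsome) counts.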

| SMILES | IC50 [nM] |
| --- | --- |
| CCOc1ccc(C(=O)CCC(=O)Nc2nc(-c3ccccc3)c(Cc3ccccc3)s2)cc1Cl [Example 36, N-(5-benzyl-4-phenyl-1,3-thiazol-2-yl)-4-(3-chloro-4-ethoxyphenyl)-4-oxobutanamide] | ≤ 10 |
| O=C(CCC(=O)c1ccc(OC(F)(F)F)cc1)Nc1nc(-c2ccccc2)c(Cc2ccccc2)s1 [Example 28, N-(5-benzyl-4-phenyl-1,3-thiazol-2-yl)-4-oxo-4-[4-(trifluoromethoxy)phenyl]butanamide] | 50 to 500 |
| CCc1cc(C(=O)CCC(=O)Nc2cc(-c3ccccc3)c(Cc3ccccc3)s2)ccc1OC [Example 55, N-(5-benzyl-4-phenyl-2-thienyl)-4-(3-ethyl-4-methoxyphenyl)-4-oxobutanamide] | 50 to 500 |
| O=C(CCC(=O)c1ccccc1)Nc1nc(-c2ccccc2)c(Cc2ccccc2)s1 [Example 2, N-(5-benzyl-4-phenyl-1,3-thiazol-2-yl)-4-oxo-4-phenylbutanamide] | 50 to 500 |
| CCOc1ccc(C(=O)CCC(=O)Nc2cc(-c3ccccc3)nc(-c3ccccc3)c2)cc1OCC [Example 12, 4-(3,4-diethoxyphenyl)-N-(2,6-diphenylpyridin-4-yl)-4-oxobutanamide] | 500 to 10000 |
| CCOc1ccc(C(=O)CCC(=O)Nc2ccc(CN3CCOCC3)c(-c3ccccc3)c2)cc1OCC [Example 39, 4-(3,4-diethoxyphenyl)-N-(6-(morpholin-4-ylmethyl)biphenyl-3-yl]-4-oxobutanamide] | 500 to 10000 |

Same assay, conditions: Table 2, 25 μM dioleoylglycerol, 25 μM [14C]-Oleoyl-CoA, 32° C., 15 min, read-out: DGAT inhibitory activity (according to IC50)

| SMILES | IC50 [nM] |
| --- | --- |
| CCOc1ccc(C(=O)CCC(=O)Nc2cc(-c3ccccc3CO)cc(-c3ccccc3)n2)cc1OCC [Example 147, 4-(3,4-diethoxyphenyl)-N-{4-[2-(hydroxymethyl)phenyl]-6-phenylpyridin-2-yl}-4-oxobutanamide] | ≤ 10 |
| CCOc1ccc(C(=O)CCC(=O)Nc2cc(-c3ccc(CCC(=O)O)cc3)cc(-c3ccccc3)n2)cc1OCC [Example 125, 3-[4-(2-{[4-(3,4-diethoxyphenyl)-4-oxobutanoyl]amino}-6-phenylpyridin-4-yl)phenyl]propanoic acid] | 500 to 10000 |
| CCOc1ccc(C(=O)CCC(=O)Nc2cc(-c3ccccc3)c(Cc3ccccc3)s2)cc1Cl [Example 70, N-(5-benzyl-4-phenyl-2-thienyl)-4-(3-chloro-4-ethoxyphenyl)-4-oxobutanamide] | 50 to 500 |
| COC(=O)CCc1ccc(-c2cc(NC(=O)CCC(=O)c3ccc4c(c3)CCO4)nc(-c3ccccc3)c2)cc1 [Example 158, methyl 3-[4-(2-{[4-(2,3-dihydro-1-benzofuran-5-yl)-4-oxobutanoyl]amino}-6-phenylpyridin-4-yl)phenyl]propanoate] | 50 to 500 |
| O=C(CCC(=O)c1ccc2c(c1)CCO2)Nc1cc(-c2ccccc2C(=O)O)cc(-c2ccccc2)n1 [Example 180, 2-(2-{[4-(2,3-dihydro-1-benzofuran-5-yl)-4-oxobutanoyl]amino}-6-phenylpyridin-4-yl)benzoic acid] | 500 to 10000 |
| CCOc1ccc(C(=O)CCC(=O)Nc2cc(-c3ccc4c(c3)OCO4)cc(-c3ccccc3)n2)cc1OCC [Example 120, N-[4-(1,3-benzodioxol-5-yl)-6-phenylpyridin-2-yl]-4-(3,4-diethoxyphenyl)-4-oxobutanamide] | 50 to 500 |
| O=C(CCC(=O)c1ccc2c(c1)OCCO2)Nc1nc(-c2ccccc2)c(Cc2ccccc2)s1 [Example 67, N-(5-benzyl-4-phenyl-1,3-thiazol-2-yl)-4-(2,3-dihydro-1,4-benzodioxin-6-yl)-4-oxobutanamide] | 50 to 500 |
| O=C(CCC(=O)c1ccc2c(c1)CCCC2)Nc1cc(-c2ccccc2)c2cc(Cl)ccc2n1 [Example 75, N-(6-chloro-4-phenylquinolin-2-yl)-4-oxo-4-(5,6,7,8-tetrahydronaphthalen-2-yl)butanamide] | 50 to 500 |
| Cc1cc(-c2cc(NC(=O)CCC(=O)c3ccc4c(c3)CCO4)nc(-c3ccccc3)c2)cc(C)c1O [Example 183, 4-(2,3-dihydro-1-benzofuran-5-yl)-N-[4-(4-hydroxy-3,5-dimethylphenyl)-6-phenylpyridin-2-yl]-4-oxobutanamide] | 50 to 500 |
| CCCCOCCOc1cc(NC(=O)CCC(=O)c2ccc(OCC)c(OCC)c2)nc(-c2ccccc2)c1 [Example 107, N-[4-(2-butoxyethoxy)-6-phenylpyridin-2-yl]-4-(3,4-diethoxyphenyl)-4-oxobutanamide] | 50 to 500 |
| O=C(CCC(=O)c1ccc2c(c1)CCO2)Nc1cc(-c2ccccc2O)cc(-c2ccccc2)n1 [Example 177, 4-(2,3-dihydro-1-benzofuran-5-yl)-N-[4-(2-hydroxyphenyl)-6-phenylpyridin-2-yl]-4-oxobutanamide] | 10 to 50 |
| CCOc1ccc(C(=O)CCC(=O)Nc2cc(-c3ccccc3)cc(Cc3ccccc3)n2)cc1OCC [Example 95, N-(6-benzyl-4-phenylpyridin-2-yl)-4-(3,4-diethoxyphenyl)-4-oxobutanamide] | 50 to 500 |
| COc1cc(-c2cc(NC(=O)CCC(=O)c3ccc4c(c3)CCO4)nc(-c3ccccc3)c2)cc(OC)c1OC [Example 182, 4-(2,3-dihydro-1-benzofuran-5-yl)-4-oxo-N-[6-phenyl-4-(3,4,5-trimethoxyphenyl)pyridin-2-yl]butanamide] | 500 to 10000 |
| CCOc1ccc(C(=O)CCC(=O)Nc2cc(-c3ccncc3)c3ccccc3n2)cc1OCC [Example 91, 4-(3,4-diethoxyphenyl)-4-oxo-N-[4-(pyridin-4-yl)quinolin-2-yl]butanamide] | 50 to 500 |
| CCOc1ccc(C(=O)CCC(=O)Nc2cc(-c3ccc(OCCCN(C)C)cc3)c3ccccc3n2)cc1OCC [Example 93, 4-(3,4-diethoxyphenyl)-N-(4-{4-[3-(dimethylamino)propoxy]phenyl}quinolin-2-yl)-4-oxobutanamide] | 50 to 500 |
| CCCCCC/C=C/c1cc(NC(=O)CCC(=O)c2ccc(OCC)c(OCC)c2)nc(-c2ccccc2)c1 [Example 152, 4-(3,4-diethoxyphenyl)-N-{4-[(1E)-octa-1-en-1-yl]-6-phenylpyridin-2-yl}-4-oxobutanamide] | 500 to 10000 |
| CCCCOc1cccc(-c2cc(NC(=O)CCC(=O)c3ccc(OCC)c(OCC)c3)nc(-c3ccccc3)c2)c1 [Example 135, N-[4-(3-butoxyphenyl)-6-phenylpyridin-2-yl]-4-(3,4-diethoxyphenyl)-4-oxobutanamide] | 500 to 10000 |
| O=C(CCC(=O)c1ccc2c(c1)CCO2)Nc1cc(-c2cccc(CCCO)c2)cc(-c2ccccc2)n1 [Example 168, 4-(2,3-dihydro-1-benzofuran-5-yl)-N-{4-[3-(3-hydroxypropyl)phenyl]-6-phenylpyridin-2-yl}-4-oxobutanamide] | 50 to 500 |
| CN(C)c1ccc(-c2cc(NC(=O)CCC(=O)c3ccc4c(c3)CCO4)nc(-c3ccccc3)c2)cc1 [Example 162, 4-(2,3-dihydro-1-benzofuran-5-yl)-N-{4-[4-(dimethylamino)phenyl]-6-phenylpyridin-2-yl}-4-oxobutanamide] | 50 to 500 |
| O=C(CCC(=O)c1ccc2c(c1)CCO2)Nc1cc(-c2cccc(C(=O)O)c2)cc(-c2ccccc2)n1 [Example 169, 3-(2-{[4-(2,3-dihydro-1-benzofuran-5-yl)-4-oxobutanoyl]amino}-6-phenylpyridin-4-yl)benzoic acid] | 500 to 10000 |
| CCOc1ccc(C(=O)CCC(=O)Nc2cc(-c3ccccc3O)cc(-c3ccccc3)n2)cc1OCC [Example 145, 4-(3,4-diethoxyphenyl)-N-[4-(2-hydroxyphenyl)-6-phenylpyridin-2-yl]-4-oxobutanamide] | ≤ 10 |
